Measurements: US12134784B2, “Method for preparing intestinal tract cell layer derived from pluripotent stem cell” (PUBLIC UNIVERSITY CORPORATION NAGOYA CITY UNIVERSITY, priority 2018, dated 2024)

Legend:
[1] = tested on: human iPS cell-derived intestinal organoid; assay: Fibrosis model using intestinal organoid (TNF-α and TGF-β addition); format: cell-based; conditions: 20 μM inhibitor with 30 ng/mL TNF-α+2 ng/mL TGF-β, 48 hours
Protocol: (A) A protocol for preparation of a fibrosis model. (B) The mRNA expression analysis of an intestinal organoid in the cases of addition of TNF-α+TGF-β and TGF-β inhibitor (SB431542, Repsox). Average±S.D. (n=3). The mRNA expression level of the control was regarded as 1.
(§1) To prepare an inflammatory bowel disease model and a fibrosis model, 30 ng/mL TNF-α and 30 ng/mL TNF-α+2 ng/mL TGF-β were added for 96 hours and 48 hours from Day 34 after completion of differentiation induction, respectively. To suppress these reactions, 100 ng/mL infliximab (anti-TNF-α antibody) for the inflammatory bowel disease model and 20 μM SB431542 or 20 μM Repsox serving as a TGF-β inhibitor, for fibrosis model were added, respectively, for the same length of time as above. Note that, to enhance the function of an intestinal organoid, PD98059, 5-aza-2′-deoxycytidine, A-83-01 and N-[(3,5-difluorophenyl) acetyl]-L-alanyl-2-phenyl-1,l-dimethylethylester-glycine (DAPT) were added from Day 19 after initiation of differentiation induction to the completion of differentiation. The addition effects in these cases were checked.
In order to reproduce fibrosis of a tissue in-vitro, which is developed by chronic inflammation in inflammatory bowel disease, TNF-α and TGF-β, each are reported as a main cause, were added for 48 hours from Day 34 after completion of differentiation induction (FIG. 8A). […]

[2] = tested on: CYP3A4
[3] = tested on: CYP3A4; assay: Inducibility of CYP3A4 in human intestinal organoid differentiated by using a polysaccharide polymer; conditions: VD3 1 μmol/L, 72 hours
[4] = tested on: CYP3A4; assay: CYP3A4 metabolic activity of human intestinal organoid (midazolam, LC-MS/MS); conditions: 5 μmol/L midazolam, 24 hours; addition of ketoconazole
[5] = tested on: human iPS cell-derived intestinal organoid; assay: Inflammatory bowel disease model using intestinal organoid (TNF-α addition); format: cell-based
Protocol: (A) Protocol for preparation of an inflammatory bowel disease model. (B) The mRNA expression analysis of an intestinal organoid in the cases of TNF-α and infliximab addition. Average±S.D. (n=3). The mRNA expression level of the control was regarded as 1. (C) Immunofluorescent staining of an intestinal organoid in the cases of TNF-α and infliximab addition. DAPI: Nuclear staining. Scale bar: 50 μm.
as §1
Whether an inflammatory bowel disease model can be prepared by using an intestinal organoid prepared by a new differentiation induction method was investigated by adding a main cause, i.e., an inflammatory cytokine, TNF-α, from Day 34 after completion of differentiation induction up to 96 hours (FIG. 7A). The expressions of villin and MUC2 gene decreased by addition of TNF-α; however, the expression of TNF-α increased. The decrease/increase in expression was suppressed by addition of an anti-TNF-α antibody, infliximab (FIG. 7B). Subsequently, expressions of a tight junction protein and an apoptosis marker were confirmed by immunofluorescent staining. It was observed that a tight junction structure is destroyed by addition of TNF-α. The number of cells positive to Caspase-3 increased. These changes were not found in an infliximab addition group (FIG. 7C). In inflammatory bowel disease, it is reported that an inflammatory cytokine affects in-vivo intestinal epithelial cells to destroy tight junction, with the result that the number of mucus secretory cells, i.e., goblet cells, decreases.

[6] = 30 ng/mL TNF-α, 96 hours from Day 34

## Cc1cccc(-c2[nH]ncc2-c2ccc3ncccc3n2)n1 [Repsox]
[1]
  decrease/increase in expression of fibrosis markers caused by TNF-α and TGF-β: suppressed

## NC(=O)c1ccc(-c2nc(-c3ccc4c(c3)OCO4)c(-c3ccccn3)[nH]2)cc1 [SB431542]
[1]
  decrease/increase in expression of fibrosis markers caused by TNF-α and TGF-β: suppressed

## C=C1/C(=C\C=C2/CCC[C@]3(C)[C@@H]([C@H](C)CCCC(C)(C)O)CC[C@@H]23)C[C@@H](O)C[C@@H]1O [activated vitamin D3, 1α, 25-dihydroxy vitamin D3]
[2]
  mRNA expression level of CYP3A4 increased: about 1700 fold
[3]; 5 μmol/L midazolam, 24 hours
  metabolic activity of midazolam: significantly increased
[3]; compared to control group
  mRNA expression of CYP3A4: significantly induced

## CC(=O)N1CCN(c2ccc(OCC3COC(Cn4ccnc4)(c4ccc(Cl)cc4Cl)O3)cc2)CC1 (stereo not drawn) [ketoconazole]
[4]
  midazolam's metabolic activity (CYP3A4): significantly inhibited

## TNF-α
[5]; 30 ng/mL TNF-α, 96 hours
  number of cells positive to Caspase-3: increased
  tight junction structure (immunofluorescent staining): destroyed
[5]; [6]
  expression of TNF-α: increased
  expressions of villin and MUC2 gene: decreased

## infliximab: anti-TNF-α antibody
[5]; 100 ng/mL infliximab with 30 ng/mL TNF-α, 96 hours
  destruction of tight junction structure and increase of Caspase-3 positive cells (immunofluorescent staining): not found
[5]; 100 ng/mL infliximab with 30 ng/mL TNF-α, 96 hours from Day 34
  decrease/increase in expression (villin, MUC2, TNF-α) caused by TNF-α: suppressed
